Values of other authors, collected in US20030180823A1, “Individualization of therapy with antihistamines” (Xanthus Life Sciences, Inc., priority 2001, published 2003).

Tested on: skin tests
Conditions: very long half-life

**Q.** With COc1ccc(CCN2CCC(Nc3nc4ccccc4n3Cc3ccc(F)cc3)CC2)cc1 [Astemizole] as the compound, how does the “duration of inhibiting skin tests” value read?
**A.** The value was “up to 6 weeks”.
